In the supplement of paper PMC10307832:

How the values were obtained:
Test in all cases: relative viability (nuclei count vs DMSO), 5 days (fraction); higher = more cells survive
Bortezomib + Pemetrexed = compound: CC(C)C[C@H](NC(=O)[C@H](Cc1ccccc1)NC(=O)c1cnccn1)B(O)O [Bortezomib] + Nc1nc2[nH]cc(CCc3ccc(C(=O)N[C@@H](CCC(=O)O)C(=O)O)cc3)c2c(=O)[nH]1 [Pemetrexed] (partner 0.2 µM)
Procedure, shortened: (§1)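 A single step with final 0.05% Triton X-100, 1% formaldehyde and 1 ug/ml Hoechst fixed the cells and stained nuclei 5 days after treatment. Lung cancer cell lines in 1536-well plates had been treated by pin tool the day after seeding with one drug alone or a fixed anchor-drug dose plus five library-drug doses (not always all listed) in √10 steps, and nuclei were counted on 4× images. Relative viability is the ratio of nuclei in treated wells to nuclei in vehicle wells, taken as the median of duplicate plates.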

[1] = compound: CC1=CC(=NN1)NC2=CC(=NC(=N2)/C=C/C3=CC=CC=C3)N4CCN(CC4)C + N=C(N)NC(=N)NCCc1ccccc1 [Phenformin] (partner 250 µM)
Procedure, shortened: as §1

Bortezomib + Navitoclax = compound: CC(C)C[C@H](NC(=O)[C@H](Cc1ccccc1)NC(=O)c1cnccn1)B(O)O [Bortezomib] + CC1(C)CCC(c2ccc(Cl)cc2)=C(CN2CCN(c3ccc(C(=O)NS(=O)(=O)c4ccc(N[C@H](CCN5CCOCC5)CSc5ccccc5)c(S(=O)(=O)C(F)(F)F)c4)cc3)CC2)C1 [Navitoclax] (partner 0.5 µM)
Procedure, shortened: as §1

[2] = compound: CC1=CC(=NN1)NC2=CC(=NC(=N2)/C=C/C3=CC=CC=C3)N4CCN(CC4)C + CC(C)C[C@H](NC(=O)[C@H](Cc1ccccc1)NC(=O)c1cnccn1)B(O)O [Bortezomib] (partner 0.002 µM)
Procedure, shortened: as §1

Row | Cell Line | relative viability (Bortezomib + Pemetrexed; first compound 0.0002 µM) | relative viability (Bortezomib + Pemetrexed; first compound 0.000632 µM) | relative viability (Bortezomib + Pemetrexed; first compound 0.002 µM) | relative viability (Bortezomib + Pemetrexed; first compound 0.006325 µM) | relative viability (Bortezomib + Pemetrexed; first compound 0.02 µM) | relative viability ([1]; first compound 0.08 µM) | relative viability ([1]; first compound 0.253 µM) | relative viability ([1]; first compound 0.8 µM) | relative viability ([1]; first compound 2.53 µM) | relative viability ([1]; first compound 8 µM) | relative viability (Bortezomib + Navitoclax; first compound 0.0002 µM) | relative viability (Bortezomib + Navitoclax; first compound 0.000632 µM) | relative viability (Bortezomib + Navitoclax; first compound 0.002 µM) | relative viability (Bortezomib + Navitoclax; first compound 0.006325 µM) | relative viability (Bortezomib + Navitoclax; first compound 0.02 µM) | relative viability ([2]; first compound 0.08 µM) | relative viability ([2]; first compound 0.253 µM) | relative viability ([2]; first compound 0.8 µM) | relative viability ([2]; first compound 2.53 µM) | relative viability ([2]; first compound 8 µM)
1 | 201T | 0.338 | 0.327 | 0.321 | 0.353 | 0.308 | 0.454 | 0.461 | 0.415 | 0.373 | 0.258 | 1.21 | 1.19 | 1.21 | 1.22 | 1.23 | 1.11 | 1.17 | 1.06 | 1.02 | 1.01
2 | A549 | – | – | – | – | – | 0.178 | 0.181 | 0.195 | 0.0435 | 0.025 | 1.14 | 1.22 | 1.07 | 0.0316 | 0.0335 | – | – | – | – | –
3 | A-427 | 0.914 | 0.971 | 0.968 | 0.235 | 0.182 | 0.347 | 0.21 | 0.282 | 0.121 | 0.0986 | 0.91 | 1.01 | 0.963 | 0.988 | 0.112 | 1.1 | 1.06 | 1.08 | 0.635 | 0.361
4 | ABC-1 | – | – | – | – | – | 0.199 | 0.192 | 0.26 | 0.234 | 0.187 | – | – | – | – | – | 0.418 | 0.268 | 0.303 | 0.257 | 0.205
5 | BEN | 0.75 | 0.806 | 0.88 | 0.529 | 0.373 | 0.228 | 0.269 | 0.259 | 0.236 | 0.196 | 0.0276 | 0.0636 | 0.151 | 0.0617 | 0.0356 | 0.854 | 0.992 | 0.831 | 0.523 | 0.197
6 | CAL-12T | 1.25 | 1.26 | 1.24 | 1.15 | 0.123 | 0.608 | 0.489 | 0.442 | 0.17 | 0.109 | 1.27 | 1.14 | 1.26 | 0.19 | 0.123 | 0.979 | 0.952 | 0.645 | 0.268 | 0.164
7 | COR-L23 | 0.186 | 0.196 | 0.201 | 0.0763 | 0.0792 | 0.45 | 0.479 | 0.414 | 0.0934 | 0.0951 | 0.933 | 1.02 | 0.528 | 0.0681 | 0.0713 | 0.972 | 1.29 | 1 | 0.196 | 0.0895
8 | COR-L 105 | 1.03 | 1.12 | 1.13 | 0.494 | 0.303 | 0.453 | 0.495 | 0.469 | 0.213 | 0.17 | 0.745 | 0.786 | 0.684 | 0.291 | 0.253 | 0.744 | 0.988 | 0.76 | 0.263 | 0.231
9 | Calu-6 | – | – | – | – | – | – | – | – | – | – | 0.749 | 0.882 | 0.69 | 0.0841 | 0.0734 | 0.912 | 0.947 | 0.764 | 0.174 | 0.13
10 | ChaGo-K-1 | 0.265 | 0.238 | 0.249 | 0.267 | 0.192 | 0.482 | 0.442 | 0.434 | 0.151 | 0.121 | – | – | 0.964 | 0.307 | 0.2 | 0.994 | 1.2 | 1.15 | 0.285 | 0.241
11 | EBC-1 | – | – | – | – | – | – | – | – | – | – | 0.439 | 0.299 | 0.195 | 0.0921 | 0.104 | 0.523 | 0.557 | 0.427 | 0.264 | 0.158
12 | EKVX | 0.373 | 0.417 | 0.482 | 0.216 | 0.102 | 0.236 | 0.21 | 0.236 | 0.189 | 0.109 | 0.95 | 1.03 | 0.978 | 0.44 | 0.0945 | 0.987 | 1.33 | 1.2 | 0.824 | 0.141
13 | EMC-BAC-2 | 0.415 | 0.44 | 0.443 | 0.326 | 0.266 | 0.511 | 0.559 | 0.432 | 0.228 | 0.0995 | 1.13 | 1.2 | 1.28 | 0.595 | 0.171 | 1.05 | 1.1 | 1.01 | 0.813 | 0.135
14 | EPLC-272H | 0.354 | 0.308 | 0.157 | 0.085 | 0.0797 | 0.315 | 0.24 | 0.258 | 0.147 | 0.135 | – | – | 1.06 | 0.0971 | 0.0714 | 0.952 | 0.914 | 0.956 | 0.531 | 0.279
15 | H3255 | 0.6 | 0.603 | 0.479 | 0.378 | 0.344 | 0.369 | 0.362 | 0.684 | 0.341 | 0.27 | 0.533 | 0.557 | 0.557 | 0.105 | 0.0892 | 0.878 | 0.854 | 0.895 | 0.745 | 0.198
16 | HARA | 0.221 | 0.178 | 0.228 | 0.157 | 0.13 | 0.47 | 0.513 | 0.343 | 0.211 | 0.138 | 1.14 | 1.16 | 1.12 | 0.075 | 0.108 | 0.971 | 1.31 | 1.09 | 0.352 | 0.109
17 | HCC-15 | 0.213 | 0.199 | 0.215 | 0.13 | 0.1 | 0.472 | 0.452 | 0.434 | 0.107 | 0.0823 | 0.706 | 0.681 | 0.692 | 0.421 | 0.116 | 0.981 | 0.961 | 1 | 0.377 | 0.235
18 | HCC-44 | 0.674 | 0.723 | 0.615 | 0.631 | 0.256 | 0.123 | 0.326 | 0.215 | 0.102 | 0.115 | 0.96 | 0.932 | 0.94 | 0.225 | 0.192 | 0.805 | 0.968 | 0.854 | 0.735 | 0.25
